Data as given in ChEMBL document CHEMBL1201862, “PubChem BioAssay data set” (2004).
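96-well plates; 48 h exposure; 5 concentrations. Endpoints by linear interpolation between flanking doses. Not reached: highest tested concentration assigned. GI50: concentration for 50% inhibition of growth.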 Active and inactive are the calls of the source. No stated cut-off is given here; in the data, active = GI50 up to about 1.1 µM and inactive = higher.

What was measured:
Experiment in all cases: NCI tumour cell line growth inhibition, 48 h
[1] = tested on: HOP-18
[2] = tested on: KM-20L2
[3] = tested on: DMS-114
[4] = tested on: LXFL 529
[5] = tested on: DMS-273
[6] = tested on: RXF 631
[7] = tested on: DLD-1
[8] = tested on: BT-549
[9] = tested on: T47D

Measured: GI50

CCc1cccc(C(C)C)c1NC(=O)C(=O)C(C(=O)C(=O)OC)c1nc2ccccc2nc1O (centres undefined)
inactive: [1] > 100 µM | [2] > 100 µM | [3] > 100 µM | [4] > 100 µM | [5] > 100 µM | [6] > 100 µM

COC(=O)C1Cc2c([nH]c3ccccc23)C(C2CCCCC2)N1 (centres undefined)
inactive: [1] > 100 µM | [2] > 100 µM | [3] > 100 µM | [4] > 100 µM | [5] > 100 µM | [6] > 100 µM | [7] > 100 µM

Cc1cccc(C)c1NC(=O)/C(=N/NC(N)=S)C(C)C(=O)c1ccc(Cl)cc1 (centres undefined)
inactive: [1] > 100 µM | [2] > 100 µM | [3] > 100 µM | [4] > 100 µM | [5] > 100 µM | [6] > 100 µM | [7] > 100 µM

COc1ccc2cc3[n+](cc2c1OC)CCc1cc(O)c(O)cc1-3
inactive: [2] > 100 µM | [3] > 100 µM | [4] > 100 µM | [5] > 100 µM | [6] > 100 µM | [7] > 100 µM

CCCc1cc(OC(=O)c2c(O)cc(OC)cc2CCC)cc(O)c1C(=O)O
inactive: [2] 37.4 µM | [3] 19.6 µM | [4] 24.1 µM | [5] 32.1 µM | [6] 26.3 µM | [7] 36.5 µM

CCCCCCCCCCCCCCCCCCN(C)C(COC)COP(=O)([O-])OCC[N+](C)(C)C (centres undefined)
inactive: [1] 6.08 µM | [8] 9.18 µM | [2] 2.08 µM | [4] 4.26 µM | [5] 1.38 µM | [6] 6.85 µM | [9] 18.4 µM | [7] 3.48 µM

COc1cc2c(cc1OC)C1C=NC(C(=O)O)(C2)c2ccccc21 (centres undefined)
inactive: [2] > 100 µM | [3] > 100 µM | [4] > 100 µM | [5] > 100 µM | [6] > 100 µM | [7] > 100 µM

N#C/C(=C\c1cccc(Cl)c1Cl)c1ccccc1
inactive: [1] 52.2 µM | [2] > 100 µM | [3] 43.7 µM | [4] 54 µM | [5] 21 µM | [6] 50 µM | [7] > 72.8 µM

O=C1/C(=C/c2cc(O)c(O)c(O)c2)Oc2cc(O)cc(OC3OC(CO)C(O)C(O)C3O)c21 (centres undefined)
inactive: [1] 53.5 µM | [2] 21.2 µM | [3] 25.2 µM | [4] 14.6 µM | [5] 1.85 µM | [6] 1.81 µM | [7] 18.7 µM

O=C(CC1(O)C(=O)Nc2ccc(Br)cc21)c1ccc(Cl)cc1 (centres undefined)
inactive: [1] 72.4 µM | [2] > 100 µM | [4] > 100 µM | [6] 31.5 µM | [7] 70.8 µM

CCOC(=O)C1(C/C=C(/C)Cl)CCCC1=O (centres undefined)
inactive: [1] > 100 µM | [2] 47.6 µM | [3] 71.6 µM | [4] > 100 µM | [5] 23 µM | [6] 95.1 µM | [7] 71.3 µM

CC1CC(C2=CC=CCS2)=Nc2ccccc2S1 (centres undefined)
inactive: [1] > 100 µM | [2] > 100 µM | [4] > 100 µM | [5] > 100 µM | [6] > 100 µM | [7] 70 µM

C/N=C(\N=c1/ss/c(=N\C)n1C)N(C)C.[O-][Cl+3]([O-])([O-])O
inactive: [1] 23.9 µM | [2] > 100 µM | [3] > 100 µM | [4] > 100 µM | [5] 37.8 µM | [6] > 100 µM | [7] 94.6 µM

CCOc1ccc(NC(=O)CC#N)cc1
inactive: [1] > 100 µM | [2] > 100 µM | [4] > 100 µM | [5] > 100 µM | [6] > 100 µM | [7] > 100 µM

N/N=C1\C(=O)N(C2CCCCC2)C(=O)C1C(=O)NC1CCCCC1 (centres undefined)
inactive: [1] > 100 µM | [2] 20.7 µM | [3] > 100 µM | [4] > 100 µM | [6] > 100 µM | [7] > 100 µM

CCOc1ccccc1NC(=O)C(=O)Cc1nc2ccccc2s1
inactive: [1] > 100 µM | [2] > 100 µM | [3] > 100 µM | [4] > 100 µM | [5] > 100 µM | [6] > 100 µM | [7] > 100 µM
